According to PubChem BioAssay AID248 (DTP/NCI, 2004):
Values joined by “and” are separate entries in the source; they are usually repeats but may differ in a detail not shown here. Identical values can stand only once. Toxic doses and inconclusive results are not listed.

Test system: L1210 leukemia ip in BDF1 mice, survival T/C
Assay: NCI In Vivo Anticancer Drug Screen. Data for tumor model L1210 Leukemia (intraperitoneal) in B6D2F1 (BDF1) mice
Conditions: endpoint: mean survival time, higher = longer survival
How it was run: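 Read-out is survival time, reported as the treated-group measurement over the vehicle-control measurement.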

[1] = dose: 50.0 mg/kg/injection, schedule: Q01DX009 (ip), vehicle: Klucel (hydroxypropylcellulose) (HPC)
[2] = dose: 100.0 mg/kg/injection, schedule: Q04DX003 (ip), vehicle: saline with Tween-80
[3] = dose: 200.0 mg/kg/injection, schedule: Q04DX003 (ip), vehicle: saline with Tween-80
[4] = dose: 400.0 mg/kg/injection, schedule: Q04DX003 (ip), vehicle: saline with Tween-80
[5] = dose: 50.0 mg/kg/injection, schedule: Q01DX009 (ip), vehicle: saline with Tween-80
[6] = dose: 100.0 mg/kg/injection, schedule: Q01DX009 (ip), vehicle: saline with Tween-80
[7] = dose: 200.0 mg/kg/injection, schedule: Q01DX009 (ip), vehicle: saline with Tween-80
[8] = dose: 50.0 mg/kg/injection, schedule: Q04DX003 (ip), vehicle: saline
[9] = dose: 100.0 mg/kg/injection, schedule: Q04DX003 (ip), vehicle: saline
[10] = dose: 200.0 mg/kg/injection, schedule: Q04DX003 (ip), vehicle: saline
[11] = dose: 400.0 mg/kg/injection, schedule: Q04DX003 (ip), vehicle: saline
[12] = dose: 100.0 mg/kg/injection, schedule: Q01DX009 (ip), vehicle: Klucel (hydroxypropylcellulose) (HPC)
[13] = dose: 200.0 mg/kg/injection, schedule: Q01DX009 (ip), vehicle: Klucel (hydroxypropylcellulose) (HPC)

CC1(c2ccccc2)CCC(NN=C(N)N)=NC1 (centres undefined)
T/C (dose: 15.0 mg/kg/injection, schedule: Q01DX Z (ip), vehicle: methylcellulose (MC)): 95 % of control
T/C (dose: 30.0 mg/kg/injection, schedule: Q01DX Z (oral), vehicle: methylcellulose (MC)): 97 % of control
T/C (dose: 60.0 mg/kg/injection, schedule: Q01DX Z (ip), vehicle: methylcellulose (MC)): 101 % of control
T/C (dose: 60.0 mg/kg/injection, schedule: Q01DX Z (oral), vehicle: methylcellulose (MC)): 91 % of control
T/C (dose: 120.0 mg/kg/injection, schedule: Q01DX Z (ip), vehicle: methylcellulose (MC)): 95 % of control
T/C (dose: 120.0 mg/kg/injection, schedule: Q01DX Z (oral), vehicle: methylcellulose (MC)): 101 % of control
T/C (dose: 240.0 mg/kg/injection, schedule: Q01DX Z (ip), vehicle: methylcellulose (MC)): 93 % of control
T/C (dose: 240.0 mg/kg/injection, schedule: Q01DX Z (oral), vehicle: methylcellulose (MC)): 93 % of control
T/C (dose: 375.0 mg/kg/injection, schedule: Q01DX Z (oral), vehicle: methylcellulose (MC)): 89 % of control
T/C (dose: 420.0 mg/kg/injection, schedule: Q01DX Z (ip), vehicle: methylcellulose (MC)): 93 % of control
T/C (dose: 500.0 mg/kg/injection, schedule: Q01DX Z (oral), vehicle: methylcellulose (MC)): 86 % of control
T/C (dose: 600.0 mg/kg/injection, schedule: Q01DX Z (ip), vehicle: methylcellulose (MC)): 92 % of control
T/C (dose: 625.0 mg/kg/injection, schedule: Q01DX Z (oral), vehicle: methylcellulose (MC)): 93 % of control

ONC12CC3CC(CC(C3)C1)C2
T/C (dose: 12.5 mg/kg/injection, schedule: Q01DX009 (ip), vehicle: Klucel (hydroxypropylcellulose) (HPC)): 98 % of control
T/C (dose: 25.0 mg/kg/injection, schedule: Q01DX009 (ip), vehicle: Klucel (hydroxypropylcellulose) (HPC)): 95 % of control
T/C [1]: 95 % of control
T/C (dose: 100.0 mg/kg/injection, schedule: Q01DX001 (ip), vehicle: Klucel (hydroxypropylcellulose) (HPC)): 97 % of control

CC(=O)Nc1cccc(/C=C/C=C/c2ccc([N+](=O)[O-])cc2)c1
T/C [2]: 93 % of control
T/C [3]: 90 % of control
T/C [4]: 90 % of control

CC1(C)CC(=O)C(c2ccc([N+](=O)[O-])cc2)=C(O)c2ccccc21
T/C [5]: 91 % of control
T/C [6]: 94 % of control
T/C [7]: 91 % of control

O=c1[nH]c(=O)n2n1CC(Br)C(Br)C2 (centres undefined)
T/C [6]: 94 % of control
T/C [2]: 106 % of control
T/C [7]: 96 % of control
T/C [3]: 110 % of control
T/C (dose: 400.0 mg/kg/injection, schedule: Q01DX009 (ip), vehicle: saline with Tween-80): 100 % of control
T/C [4]: 94 % of control

CC1(C)NC(=O)N(CCOS(C)(=O)=O)C1=O
T/C (dose: 25.0 mg/kg/injection, schedule: Q04DX003 (ip), vehicle: saline): 101 % of control
T/C [8]: 98 % of control
T/C [9]: 104 % of control
T/C [10]: 104 % of control
T/C [11]: 93 % of control

CC(=O)C1(O)Cc2c(O)c3c(c(O)c2C(OC2CC(N)C(O)C(C)O2)C1)C(=O)c1ccccc1C3=O (centres undefined)
T/C (dose: 0.1 mg/kg/injection, schedule: Q01DX009 (ip), vehicle: saline): 119 % of control
T/C (dose: 0.8 mg/kg/injection, schedule: Q01DX009 (ip), vehicle: saline): 92 % of control

C[N+]1(C)CC2CCCCC1C2O (centres undefined)
T/C (dose: 75.0 mg/kg/injection, schedule: Q01DX001 (ip), vehicle: saline): 108 % of control
T/C (dose: 150.0 mg/kg/injection, schedule: Q01DX001 (ip), vehicle: saline): 104 % of control

CC(C)=CCCNC(=O)NS(=O)(=O)c1ccc(Cl)cc1
T/C [1]: 101 % of control
T/C [12]: 95 % of control
T/C (dose: 100.0 mg/kg/injection, schedule: Q04DX003 (ip), vehicle: Klucel (hydroxypropylcellulose) (HPC)): 104 % of control
T/C [13]: 102 % of control
T/C (dose: 200.0 mg/kg/injection, schedule: Q04DX003 (ip), vehicle: Klucel (hydroxypropylcellulose) (HPC)): 110 % of control
T/C (dose: 400.0 mg/kg/injection, schedule: Q04DX003 (ip), vehicle: Klucel (hydroxypropylcellulose) (HPC)): 95 % of control

CCCCCCCC(=O)Nc1ccc(C)c(C)c1
T/C [2]: 93 % of control
T/C [3]: 98 % of control
T/C [4]: 93 % of control

N#C/C(=C\c1cccnc1)c1ccc(Br)cc1
T/C (dose: 100.0 mg/kg/injection, schedule: Q01DX009 (ip), vehicle: saline sonified): 98 % of control
T/C (dose: 200.0 mg/kg/injection, schedule: Q01DX009 (ip), vehicle: saline sonified): 100 % of control
T/C (dose: 400.0 mg/kg/injection, schedule: Q01DX009 (ip), vehicle: saline sonified): 93 % of control

NC1CC[N-]CC1.NC1CC[N-]CC1.[Cl][Pt+2]([Cl])([Cl])[Cl]
T/C (dose: 12.5 mg/kg/injection, schedule: Q01DX009 (ip), vehicle: saline): 101 % of control
T/C (dose: 25.0 mg/kg/injection, schedule: Q01DX009 (ip), vehicle: saline): 101 % of control
T/C (dose: 50.0 mg/kg/injection, schedule: Q01DX009 (ip), vehicle: saline): 95 % of control
T/C [8]: 106 % of control
T/C (dose: 100.0 mg/kg/injection, schedule: Q01DX009 (ip), vehicle: saline): 101 % of control
T/C [9]: 104 % of control

O=C1NC(=O)C(c2ccc(Cl)cc2)(c2ccc(Cl)cc2)N1
T/C (dose: 45.0 mg/kg/injection, schedule: Q01DX009 (ip), vehicle: Klucel (hydroxypropylcellulose) (HPC)): 99 % of control
T/C (dose: 65.0 mg/kg/injection, schedule: Q01DX009 (ip), vehicle: Klucel (hydroxypropylcellulose) (HPC)): 95 % of control
T/C [12]: 100 % of control
T/C [9]: 96 % of control
T/C (dose: 150.0 mg/kg/injection, schedule: Q01DX009 (ip), vehicle: Klucel (hydroxypropylcellulose) (HPC)): 103 % of control
T/C [13]: 100 % of control
T/C [10]: 92 % of control
T/C (dose: 400.0 mg/kg/injection, schedule: Q01DX009 (ip), vehicle: Klucel (hydroxypropylcellulose) (HPC)): 113 % of control
T/C [11]: 97 % of control

CC12CCC3C(CCC4=CC(=O)C(C(O)(C(F)(F)F)C(F)(F)F)CC43C)C1CC(C(O)(C(F)(F)F)C(F)(F)F)C2=O (centres undefined)
T/C (dose: 100.0 mg/kg/injection, schedule: Q01DX001 (sc), vehicle: steriod suspending solution): 97 % of control
T/C (dose: 200.0 mg/kg/injection, schedule: Q01DX001 (sc), vehicle: steriod suspending solution): 103 % of control
T/C (dose: 400.0 mg/kg/injection, schedule: Q01DX001 (sc), vehicle: steriod suspending solution): 101 % of control

CC[Si](Cl)(CC)c1ccccc1
T/C (dose: 100.0 mg/kg/injection, schedule: Q01DX001 (ip), vehicle: saline): 93 % of control
T/C (dose: 100.0 mg/kg/injection, schedule: Q01DX001 (sc), vehicle: olive oil, sesame oil, peanut oil): 107 % of control
T/C (dose: 200.0 mg/kg/injection, schedule: Q01DX001 (ip), vehicle: saline): 90 % of control
T/C (dose: 200.0 mg/kg/injection, schedule: Q01DX001 (sc), vehicle: olive oil, sesame oil, peanut oil): 107 % of control
T/C (dose: 400.0 mg/kg/injection, schedule: Q01DX001 (ip), vehicle: saline): 195 % of control
T/C (dose: 400.0 mg/kg/injection, schedule: Q01DX001 (sc), vehicle: olive oil, sesame oil, peanut oil): 102 % of control

Cc1ccc(N=NN(C)CC#N)cc1
T/C (dose: 25.0 mg/kg/injection, schedule: Q04DX003 (ip), vehicle: other): 96 % of control
T/C (dose: 50.0 mg/kg/injection, schedule: Q04DX003 (ip), vehicle: other): 96 % of control
T/C (dose: 100.0 mg/kg/injection, schedule: Q04DX003 (ip), vehicle: other): 93 % of control and 105 % of control

O=C(O)CCCc1ccc2ccccc2n1
T/C (dose: 50.0 mg/kg/injection, schedule: Q01DX001 (ip), vehicle: alkali diluted with saline): 101 % of control
T/C (dose: 100.0 mg/kg/injection, schedule: Q01DX001 (ip), vehicle: alkali diluted with saline): 103 % of control
T/C (dose: 200.0 mg/kg/injection, schedule: Q01DX001 (ip), vehicle: alkali diluted with saline): 97 % of control
T/C (dose: 400.0 mg/kg/injection, schedule: Q01DX001 (ip), vehicle: alkali diluted with saline): 103 % of control

CC(C)=CCC/C(C)=C\CCl
T/C (dose: 25.0 mg/kg/injection, schedule: Q01DX009 (ip), vehicle: saline with Tween-80): 93 % of control
T/C [5]: 106 % of control
T/C [6]: 97 % of control and 101 % of control
T/C [2]: 104 % of control
T/C [3]: 93 % of control
T/C [4]: 90 % of control

O=NN(CC(=O)O)Cc1ccc(Cl)cc1
T/C (dose: 100.0 mg/kg/injection, schedule: Q01DX Z (ip), vehicle: saline): 102 % of control
T/C (dose: 200.0 mg/kg/injection, schedule: Q01DX Z (ip), vehicle: saline): 102 % of control
